Data as given in patent US7736624B2, “Methods and compositions for diagnostic and therapeutic targeting of COX-2” (priority 2006, dated 2010).
Like-named read-outs stand apart in the source and are kept apart here.

Experiments:
COX-1 = biological target: T1, COX-1 (Mus musculus, UniProt P22437); test: Macrophage assay (RAW264.7), COX-1; assay type: cell-based, murine
T1 sequence (P22437 1-602): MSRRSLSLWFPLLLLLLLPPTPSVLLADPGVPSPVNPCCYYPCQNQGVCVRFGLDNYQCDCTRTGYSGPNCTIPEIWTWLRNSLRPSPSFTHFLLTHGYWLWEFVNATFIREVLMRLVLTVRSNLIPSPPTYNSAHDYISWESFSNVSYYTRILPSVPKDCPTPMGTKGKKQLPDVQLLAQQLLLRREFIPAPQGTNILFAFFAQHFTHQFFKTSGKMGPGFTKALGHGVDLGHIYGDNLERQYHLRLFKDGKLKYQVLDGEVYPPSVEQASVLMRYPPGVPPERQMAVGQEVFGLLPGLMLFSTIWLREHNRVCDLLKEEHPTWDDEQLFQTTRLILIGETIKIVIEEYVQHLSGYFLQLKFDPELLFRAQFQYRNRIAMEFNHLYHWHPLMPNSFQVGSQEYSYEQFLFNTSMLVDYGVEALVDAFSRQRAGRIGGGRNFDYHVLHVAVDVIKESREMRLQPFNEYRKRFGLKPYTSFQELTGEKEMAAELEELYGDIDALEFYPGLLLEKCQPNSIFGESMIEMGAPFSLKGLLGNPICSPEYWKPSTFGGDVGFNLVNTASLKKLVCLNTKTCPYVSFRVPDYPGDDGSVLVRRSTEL
Description: (§1) Thus, NSAID derivatives that are identified as potentially useful in the methods described herein can be further tested using, for example, the RAW264.7 murine macrophage cell line. These cells are readily available (for example, from the American Type Culture Collection (ATCC), Manassas, Va., United States of America) and are easily cultured in large numbers. They normally express low levels of COX-1 and very low to undetectable levels of COX-2. Upon exposure to bacterial lipopolysaccharide (LPS), however, COX-2 levels increase dramatically over the ensuing 24 hour period, and the cells produce PGD2 and PGE2 from endogenous arachidonic acid stores (generally, ˜1 nmol/10^7 cells total PG formation). After LPS exposure, the addition of exogenous arachidonic acid results in the formation of additional PGD2 and PGE2 as a result of metabolism by the newly synthesized COX-2.
(§2) This system provides a number of approaches for testing the inhibitory potency of COX-2-selective ligands (e.g., inhibitors). In general, following LPS activation, cells can be treated for 30 minutes with the desired concentrations of candidate derivative(s) in DMSO. ^14C-arachidonic acid can be added, and the cells can be incubated for 15 minutes at 37° C. Product formation can be assessed following extraction and TLC separation of the culture medium. Alternatively, the effects of candidate derivatives on PG synthesis from endogenous arachidonic acid can be assessed by incubating cells with desired concentrations of candidate derivatives 30 minutes prior to LPS exposure. Following a 24-hour incubation, medium can be collected and extracted, and the amount of PGD2 and/or PGE2 can be assayed by gas chromatography-mass spectrometry, liquid chromatography-mass spectrometry, or ELISA.

Fluorescence in buffer = assay type: physicochemical; settings: for Fluor. λem: emission; for Fluor. λex: excitation
COX-2 = biological target: T2, COX-2 (Mus musculus, UniProt Q05769); test: Macrophage assay (RAW264.7), COX-2; assay type: cell-based, murine
T2 construct: metabolism by the newly synthesized COX-2; endogenous in cells
T2 sequence (Q05769 18-604): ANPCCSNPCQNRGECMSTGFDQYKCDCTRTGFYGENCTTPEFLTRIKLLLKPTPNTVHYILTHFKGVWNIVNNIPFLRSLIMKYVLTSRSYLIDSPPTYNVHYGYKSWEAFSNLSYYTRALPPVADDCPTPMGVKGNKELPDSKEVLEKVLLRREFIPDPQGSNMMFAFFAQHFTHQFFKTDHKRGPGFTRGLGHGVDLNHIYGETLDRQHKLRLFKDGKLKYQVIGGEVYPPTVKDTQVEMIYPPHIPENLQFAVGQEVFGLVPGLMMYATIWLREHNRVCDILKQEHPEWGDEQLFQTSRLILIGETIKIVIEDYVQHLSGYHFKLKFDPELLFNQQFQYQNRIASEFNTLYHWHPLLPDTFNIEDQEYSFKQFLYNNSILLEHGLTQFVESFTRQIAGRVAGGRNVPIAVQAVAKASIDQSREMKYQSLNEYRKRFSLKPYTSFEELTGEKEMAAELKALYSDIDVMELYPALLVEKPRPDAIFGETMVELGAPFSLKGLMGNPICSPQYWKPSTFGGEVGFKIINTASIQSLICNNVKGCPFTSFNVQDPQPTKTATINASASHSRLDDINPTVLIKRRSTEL
Description: as §1, §2

[1] = Table 3, macrophage assay, read-out: IC50 COX-2

Structure (SMILES) | IC50 (COX-1; Table 3, macrophage assay) | Fluor. λem (Fluorescence in buffer) | Fluor. λex (Fluorescence in buffer) | IC50 (COX-2; [1]) | IC50 (COX-2; read-out: IC50 in RAW 264.7 cells) | IC50 (COX-1; Table 2, macrophage assay (M)) | IC50 (COX-2; Table 2, macrophage assay (M), read-out: IC50 COX-2)
COc1ccc2c(c1)c(CC(=O)NCCNS(=O)(=O)c1ccc(/N=N/c3ccc(N(C)C)cc3)cc1)c(C)n2C(=O)c1ccc(Cl)cc1 [Compound 27aa, N-(2-Dabsylaminoethyl)-2-{1-(4-chlorobenzoyl)-5-methoxy-2-methyl-1H-indol-3-yl}acetamide] | > 2.5e-06 M | 450 nm | 390 nm | 1.8e-07 M |  |  | 
COc1ccc2c(c1)c(CC(=O)NCCCCNC(=O)c1ccc(C3=c4cc5c6c(c4Oc4c3cc3c7c4CCCN7CCC3)CCC[N+]=6CCC5)c(C(=O)[O-])c1)c(C)n2C(=O)c1ccc(Cl)cc1 [Compound 27eee] | > 5e-06 M |  |  |  | 3.2e-07 M |  | 
COc1ccc2c(c1)c(CC(=O)NCCCCNC(=O)Cc1ccc(Nc3ccc([N+](=O)[O-])c4nonc34)cc1)c(C)n2C(=O)c1ccc(Cl)cc1 [Compound 27ii, N-([2-{4-(7-nitrobenzo[1,2,5]oxadiazol-4-ylamino)phenyl}acetamido]but-4-yl)-2-{1-(4-chlorobenzoyl)-5-methoxy-2-methyl-1H-indol-3-yl]acetamide] | > 1e-05 M | 605 nm | 492 nm | 5.7e-07 M |  |  | 
COc1ccc2c(c1)c(CC(=O)NCCCCNC(=O)c1ccc(C(=O)O)c(-c3c4ccc(=O)cc-4oc4cc(O)ccc34)c1)c(C)n2C(=O)c1ccc(Cl)cc1 [Compound 27qq, N-[(Fluorescein-6-carboxylamido)but-4-yl]-2-[1-(4-chlorobenzoyl)-5-methoxy-2-methyl-1H-indol-3-yl)acetamide] | > 5e-06 M |  |  | 1.88e-07 M |  |  | 
CC[N+](CC)=c1ccc2c(-c3ccccc3)c(C)c(/C=C/C=C3/N(CCCCCC(=O)NCCCCNC(=O)Cc4c(C)n(C(=O)c5ccc(Cl)cc5)c5ccc(OC)cc45)c4ccc(S(=O)(=O)[O-])cc4C3(C)C)oc-2c1 [Compound 27ttt] | > 5e-06 M | 731 nm | 710 nm | 8.9e-07 M |  |  | 
CC[N+](CC)=c1ccc2nc3c(cc(NC(=O)CCOCCOCCOCCOCCNC(=O)Cc4c(C)n(C(=O)c5ccc(Cl)cc5)c5ccc(OC)cc45)c4ccccc43)oc-2c1 [Compound 27uu, N-[5-)1-{1-(4-chlorobenzoyl)-5-methoxy-2-methyl-1H-indol-3-yl}-2-6,9,12,15-tetraoxa-3-azaoctadecanamido]-9H-benzo[a]penoxazin-9-ylidene)-N-ethylethanaminium perchlorate] | > 2.5e-05 M | 670 nm | 618 nm | 8.5e-08 M |  |  | 
COc1ccc2c(c1)c(CC(=O)NCCCCNC(=O)c1ccc(C(=O)[O-])c(C3=c4cc5c6c(c4Oc4c3cc3c7c4CCCN7CCC3)CCC[N+]=6CCC5)c1)c(C)n2C(=O)c1ccc(Cl)cc1 [Compound 27vv] | > 5e-06 M | 603 nm | 581 nm |  |  |  | 
COc1ccc2c(c1)c(CC(=O)NCCNS(=O)(=O)c1cccc3c(N(C)C)cccc13)c(C)n2C(=O)c1ccc(Cl)cc1 [Compound 27x] | > 1e-06 M | 493 nm | 355 nm | 3e-08 M |  |  | 
COC(=O)c1cc(-c2ccc(C)cc2)n(-c2ccc(S(N)(=O)=O)cc2)n1 [Compound 30b] |  |  |  |  |  | > 5e-06 M | 1.1e-07 M
